Patent US20250066320A1, “Active Ingredients with Sialagogue and Tingling/Fizzy Effect, and Preparations Containing Same” (Symrise AG, priority 2021, published 2025)

Experiment: Sensory tasting of the active ingredients (mouth-watering and/or tingling effect) by a trained expert panel
Format: in vivo, human
Conditions: for Sensory Rating: intensity of mouth-watering and/or tingling/fizzing effect (figure in brackets): 50 ppm
Experimental: The sensory tasting of the active ingredients according to the invention was carried out as follows: • (1) The active ingredients were each prepared in a 5% sugar solution or in an unflavored standard fondant mass. Fondant is the name for a soft, pasty sugar mass that is used to make various confectionery products. Fondant is made from water and sucrose as well as glucose syrup, invert sugar cream and/or sugar alcohols (e.g., sorbitol or mannitol). The mixture is boiled and then processed into a soft paste by kneading it vigorously and cooling it quickly. • (2) The concentration of the active ingredients was 25 or 50 ppm. • (3) The test samples were tested under practical conditions by a panel of experts with sensory training. For tasting, 3 to 7 tasters each rinsed their mouths with approx. 5 ml of the sugar solution and spat the solution out again. The mouth-watering and/or tingling effect was assessed on a scale of 1 (very weak) to 10 (very strong) and the profile evaluated.

[1] = 25 ppm in 5% sugar solution or unflavored fondant mass, 3 to 7 tasters
[2] = 50 ppm in 5% sugar solution or unflavored fondant mass, 3 to 7 tasters
[3] = scale of 1 (very weak) to 10 (very strong)

Row | SMILES | Sensory Rating (profile in words) [1] | Sensory Rating (profile in words) [2] | Sensory Rating: intensity of mouth-watering and/or tingling/fizzing effect (figure in brackets) [3] | further results
1 | CCCOc1ccc(C(=O)N2CCN(C/C=C/c3ccccc3)CC2)cc1OCCC [Compound 1, [4-[(E)-cinnamyl]pi-perazin-1-yl]-(3,4-dipropoxy-phenyl)methanone] | astringent mouth-watering, Spilanthes effect | – | – | –
2 | COc1ccc(C(=O)N2CCN(C/C=C/c3ccccc3)CC2)cc1OC [Compound 3, [4-[(E)-cinnamyl]piperazin-1-yl]-(3,4-dimethoxy-phenyl)methanone] | – | tingling/ fizzing | – | –
3 | COc1cc(C(=O)N2CCN(C/C=C/c3ccccc3)CC2)ccc1O [Compound 4, [4-[(E)-cinnamyl]piperazin-1-yl]-(4-hydroxy-3-methoxy-phenyl)methanone] | – | balsamic | – | –
4 | COc1cc(C(=O)N2CCN(C/C=C/c3ccccc3)CC2)cc(OC)c1OC [Compound 5, [4-[(E)-cinnamyl]piperazin-1-yl]-(3,4,5-trimethoxy-phenyl)methanone] | chocolaty, dusty, after cress | – | – | –
5 | CCCOc1ccc(C(=O)N2CCN(C/C=C/c3ccccc3)CC2)cc1OCCC [Compound 6, [4-[(E)-cinnamyl]piperazin-1-yl]-(3,4-dipropoxy-phenyl)methanone] | bitter, light astringent | – | – | –
6 | CCOc1ccc(C(=O)N2CCN(CCCc3ccccc3)CC2)cc1OCC [Compound 7, (3,4-Diethoxy-phenyl)-[4-(3-phenyl-propyl)piperazin-1-yl]methanone] | tingling/ fizzing, mouth-watering, slightly cooling | – | – | –
7 | CCOc1ccc(C(=O)N2CCN(Cc3ccccc3)CC2)cc1OCC [Compound 8, (4-benzylpiperazin-1-yl)-(3,4-diethoxy-phenyl)methanone] | slightly tingling/ fizzing, slightly mouth-watering, slightly cooling | – | – | –
8 | COc1ccc(C(=O)N2CCN(C/C=C/c3ccccc3)CC2)cc1O [Compound 9, [4-[(E)-cinnamyl]piperazin-1-yl]-(3-hydroxy-4-methoxy-phenyl)methanone] | sweet, after melon | – | – | –
9 | CC(C)Oc1ccc(C(=O)N2CCN(C/C=C/c3ccccc3)CC2)cc1OC(C)C [Compound 10, [4-[(E)-cinnamyl]piperazin-1-yl]-(3,4-diisopropoxy-phenyl)methanone] | astringent, bitter | – | – | –
10 | CCOc1ccc(C(=O)N2CCN(CCCCc3ccccc3)CC2)cc1OCC [Compound 11, (3,4-Diethoxy-phenyl)-[4-(4-phenyl-butyl)piperazin-1-yl]methanone] | tingling/ fizzing, like melon, astringent, mouth-watering | – | – | –
11 | CCOc1ccc(C(=O)N2CCN(CCc3ccncc3)CC2)cc1OCC [Compound 12, (3,4-Diethoxy-phenyl)-[4-[2-(4-pyridyl)ethyl]piperazin-1-yl] methanone] | tingling/ fizzing, mouth-watering, ethanolic | – | – | –
12 | CCOc1ccc(C(=O)N2CCN(CCOc3ccccc3)CC2)cc1OCC [Compound 13, (3,4-Diethoxy-phenyl)-[4-(2-phenoxyethyl)piperazin-1-yl] methanone] | strong tingling/ fizzing, mouth-watering, | – | – | –
13 | CCOc1ccc(C(=O)N2CCN(Cc3ccncc3)CC2)cc1OCC [Compound 14, (3,4-Diethoxy-phenyl)-[4-(4-pyridyl-methyl)piperazin-1-yl]methanone] | slightly tingling/ fizzing, mouth-watering, burning, | – | – | –
14 | CCOc1ccc(C(=O)N2CCN(CCc3ccccc3)CC2)cc1OCC [Compound 15, (3,4-Diethoxy-phenyl)-[4-(2-phenyl-ethyl)piperazin-1-yl]methanone] | Acid effect, tingling/ fizzing, mouth-watering, slightly salty | – | – | –
15 | O=C(c1ccccc1)N1CCN(CCCCc2ccccc2)CC1 [Compound 16, Phenyl-[4-(4-phenylbutyl)piperazin-1-yl]methanone] | slightly tingling/ fizzing | metallic taste, mouth-watering and tingling/ fizzing effect | 2-3 | –
16 | O=C(c1ccccc1)N1CCN(C/C=C/c2ccccc2)CC1 [Compound 17, [4-[(E)-cinnamyl]piperazin-1-yl]-phenyl-methanone] | – | slightly tingling/ fizzing, slightly honey-like | 3 | –
17 | O=C(c1ccccc1)N1CCN(CCc2ccccc2)CC1 [Compound 18, Phenyl-[4-(2-phenyl-ethyl)piperazin-1-yl]methanone] | no effect | slightly tingling/ fizzing and mouth-watering | 2-3 | –
18 | O=C(c1ccccc1)N1CCN(CCC2CCCCC2)CC1 [Compound 19, [4-(2-cyclo-hexylethyl)piperazin-1-yl]-phenyl-methanone] | fruity, slightly mouth-watering | of mushrooms, fruity, slightly metallic taste, slightly tingling/ fizzing | 1-2 | –
19 | O=C(c1ccccc1)N1CCC(CCCc2ccccc2)CC1 [Compound 20, Phenyl-[4-(3-phenyl-propyl)-1-piperidyl]-methanone] | – | slightly tingling/ fizzing (2), mouth-watering, Anthranilate- like, fruity note | slightly tingling/ fizzing (2), mouth-watering, Anthranilate- like, fruity note | –
20 | O=C(c1ccccc1)N1CCN(CCCc2ccccc2)CC1 [Compound 21, Phenyl-[4-(3-phenylpropyl)piperazin-1-yl] methanone] | sweet, fruity, slightly tingling/ fizzing | slightly tingling/ fizzing and mouth-watering | 2-3 | –
21 | O=C(c1ccccc1)N1CCCN(CCc2ccccc2)CC1 [Compound 22, Phenyl-[4-(2-phenyl-ethyl)-1,4-diazepan-1-yl] methanone] | floral, linalool flavor | very light metallic taste, remarkably mouth-watering and tingling/ fizzing | 4-5 | –
22 | O=C(c1ccccc1)N1CCN(Cc2ccccc2)CC1 [Compound 23, (4-benzylpiperazin-1-yl)-phenyl-methanone] | – | Slightly floral taste, slightly metallic, not a pleasant taste, very slightly mouth-watering and tingling/fizzing | 3 | –
23 | CCOc1ccc(C(=O)N2CCN(CCC3CCCCC3)CC2)cc1OCC [Compound 24, [4-(2-cyclo-hexylethyl)piperazin-1-yl]-(3,4-diethoxy-phenyl)methanone] | – | fruity taste (blueberries) | – | –
24 | CCOc1ccc(C(=O)N2CCC(CCCc3ccccc3)CC2)cc1OCC [Compound 25, (3,4-Diethoxy-phenyl)-[4-(3-phenyl-propyl)-1-piperidyl]-methanone] | – | Very slightly tingling/fizzing (2-3), sharp, astringent | Very slightly tingling/fizzing (2-3), sharp, astringent | –
25 | CCOc1ccc(C(=O)N2CCCN(CCc3ccccc3)CC2)cc1OCC [Compound 26, (3,4-Diethoxy-phenyl)-[4-(2-phenyl-ethyl)-1,4-diazepan-1-yl]methanone] | – | Very slightly tingling/fizzing (1-2), and mouth-watering (weak) | Very slightly tingling/fizzing (1-2), and mouth-watering (weak) | –
26 | COc1ccc(C(=O)N2CCN(CCCCc3ccccc3)CC2)cc1OC [Compound 27, (3,4-Dimethoxy-phenyl)-[4-(4-phenyl-butyl)piperazin-1-yl]methanone] | – | slightly tingling/ fizzing (4-5), and mouth-watering, metallic after- taste, weakly burning | slightly tingling/ fizzing (4-5), and mouth-watering, metallic after- taste, weakly burning | –
27 | COc1ccc(C(=O)N2CCN(CCc3ccccc3)CC2)cc1OC [Compound 28, (3,4-Dimethoxy-phenyl)-[4-(2-phenyl-ethyl)piperazin-1-yl]methanone] | – | – | – | Sensory Rating (profile in words) (dosage 25 and 50 ppm, cell not split by dosage): slightly tingling/ fizzing (3) slightly metallic; Sensory Rating: intensity of tingling/fizzing effect (figure in brackets) (dosage 25 and 50 ppm, cell not split by dosage, scale of 1 (very weak) to 10 (very strong)): slightly tingling/ fizzing (3) slightly metallic
28 | COc1ccc(C(=O)N2CCN(CCC3CCCCC3)CC2)cc1OC [Compound 29, [4-(2-cyclo-hexylethyl)piperazin-1-yl]-(3,4-dimethoxy-phenyl)methanone] | – | slightly mouth-watering, slightly tingling/ fizzing (1-2), green note, light onion flavor | slightly mouth-watering, slightly tingling/ fizzing (1-2), green note, light onion flavor | –
29 | COc1ccc(C(=O)N2CCC(CCCc3ccccc3)CC2)cc1OC [Compound 30, (3,4-Dimethoxy-phenyl)-[4-(3-phenyl-propyl)-1-piperidyl]methanone] | – | very slight tingling/fizzing and mouth-watering, dry in the mouth | – | –
30 | COc1ccc(C(=O)N2CCN(CCCc3ccccc3)CC2)cc1OC [Compound 31, (3,4-Dimethoxy-phenyl)-[4-(3-phenyl-propyl)piperazin-1-yl]methanone] | – | tingling/ fizzing (5-6), and mouth-watering, fruity note, Honey flavor | tingling/ fizzing (5-6), and mouth-watering, fruity note, Honey flavor | –
